Experimental data: the supplement of paper PMC10733146

Columns and labels:
Experiment in all cases: viability relative to DMSO control (fraction); higher = less drug effect (more viable cells)
Conditions in all cases: 48 h
[1] = tested on: primary ALL patient cells (S088)
In short: (§1)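 Compounds were pre-plated at five concentrations, one well each, in 384-well plates, and primary mononuclear tumour cells were plated on them at 4 × 10^4 cells per well. The cells, fresh or cryopreserved, had been Ficoll-isolated from blood or bone marrow or taken from processed lymph node. After 48 h at 37 °C and 5% CO2 in RPMI-1640 with penicillin/streptomycin, L-glutamine and human serum, viability was read as CellTiter-Glo luminescence relative to the median of 16 inner DMSO wells.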

[2] = tested on: primary AML patient cells (S025)
In short: as §1

[3] = tested on: primary FL patient cells (S087)
In short: as §1

[4] = tested on: primary AML patient cells (S002)
In short: as §1

[5] = tested on: primary AML patient cells (S017)
In short: as §1

[6] = tested on: primary AML patient cells (S060)
In short: as §1

[7] = tested on: primary AML patient cells (S079)
In short: as §1

[8] = tested on: primary FL patient cells (S022)
In short: as §1

[9] = tested on: primary AML patient cells (S019)
In short: as §1

[10] = tested on: primary AML patient cells (S091)
In short: as §1

[11] = tested on: primary MCL patient cells (S053)
In short: as §1

[12] = tested on: primary AML patient cells (S071)
In short: as §1

[13] = tested on: primary DLBCL patient cells (S082)
In short: as §1

[14] = tested on: primary AML patient cells (S072)
In short: as §1

[15] = tested on: primary AML patient cells (S009)
In short: as §1

[16] = tested on: primary AML patient cells (S089)
In short: as §1

[17] = tested on: primary ALL patient cells (S048)
In short: as §1

[18] = tested on: primary AML patient cells (S021)
In short: as §1

[19] = tested on: primary B-PLL patient cells (S016)
In short: as §1

[20] = tested on: primary AML patient cells (S055)
In short: as §1

Work on `Oc1ccc(/C=C/c2cc(O)cc(O)c2)cc1` [Resveratrol] yielded a viability ([1]; 0.024 µM) of 0.427, a viability ([1]; 0.12 µM) of 0.459 and a viability ([1]; 0.6 µM) of 0.489. For the same compound, the viability ([1]; 3 µM) was 0.477, the viability ([1]; 15 µM) was 0.426 and the viability ([2]; 0.024 µM) was 0.933. For the same compound, the viability ([2]; 0.12 µM) was 0.921, the viability ([2]; 0.6 µM) was 0.883 and the viability ([2]; 3 µM) was 0.891. The viability ([2]; 15 µM) was 0.758, the viability ([3]; 0.024 µM) was 0.804 and the viability ([3]; 0.12 µM) was 0.857. It also gave a viability ([3]; 0.6 µM) of 0.803, a viability ([3]; 3 µM) of 0.877 and a viability ([3]; 15 µM) of 0.815. The viability ([4]; 0.024 µM) was 0.873, the viability ([4]; 0.12 µM) was 0.932 and the viability ([4]; 0.6 µM) was 0.894. For the same compound, the viability ([4]; 3 µM) was 0.796, the viability ([4]; 15 µM) was 0.604 and the viability ([5]; 0.024 µM) was 0.89. For the same compound, the viability ([5]; 0.12 µM) was 0.933, the viability ([5]; 0.6 µM) was 0.92 and the viability ([5]; 3 µM) was 0.883. For the same compound, the viability ([5]; 15 µM) was 0.902, the viability ([6]; 0.024 µM) was 0.964 and the viability ([6]; 0.12 µM) was 0.99. The viability ([6]; 0.6 µM) was 0.946, the viability ([6]; 3 µM) was 0.918 and the viability ([6]; 15 µM) was 0.893. For the same compound, the viability ([7]; 0.024 µM) was 0.838, the viability ([7]; 0.12 µM) was 0.767 and the viability ([7]; 0.6 µM) was 0.792. It also gave a viability ([7]; 3 µM) of 0.718, a viability ([7]; 15 µM) of 0.736 and a viability ([8]; 0.024 µM) of 0.832. For the same compound, the viability ([8]; 0.12 µM) was 0.823, the viability ([8]; 0.6 µM) was 0.784 and the viability ([8]; 3 µM) was 0.847. It also gave a viability ([8]; 15 µM) of 0.811, a viability ([9]; 0.024 µM) of 0.879 and a viability ([9]; 0.12 µM) of 0.928. The viability ([9]; 0.6 µM) was 1, the viability ([9]; 3 µM) was 0.918 and the viability ([9]; 15 µM) was 0.924. For the same compound, the viability ([10]; 0.024 µM) was 0.863, the viability ([10]; 0.12 µM) was 0.832 and the viability ([10]; 0.6 µM) was 0.868. The viability ([10]; 3 µM) was 0.708, the viability ([10]; 15 µM) was 0.553 and the viability ([11]; 0.024 µM) was 0.75. The viability ([11]; 0.12 µM) was 0.671, the viability ([11]; 0.6 µM) was 0.595 and the viability ([11]; 3 µM) was 0.686. For the same compound, the viability ([11]; 15 µM) was 0.772, the viability ([12]; 0.024 µM) was 0.774 and the viability ([12]; 0.12 µM) was 0.734. The viability ([12]; 0.6 µM) was 0.732, the viability ([12]; 3 µM) was 0.688 and the viability ([12]; 15 µM) was 0.591. The viability ([13]; 0.024 µM) was 0.79, the viability ([13]; 0.12 µM) was 0.776 and the viability ([13]; 0.6 µM) was 0.828. For the same compound, the viability ([13]; 3 µM) was 0.871, the viability ([13]; 15 µM) was 0.954 and the viability ([14]; 0.024 µM) was 1.07. The viability ([14]; 0.12 µM) was 0.797, the viability ([14]; 0.6 µM) was 0.816 and the viability ([14]; 3 µM) was 0.798. The viability ([14]; 15 µM) was 0.687, the viability ([15]; 0.024 µM) was 0.782 and the viability ([15]; 0.12 µM) was 0.815. For the same compound, the viability ([15]; 0.6 µM) was 0.815, the viability ([15]; 3 µM) was 0.789 and the viability ([15]; 15 µM) was 0.683. It also gave a viability ([16]; 0.024 µM) of 0.819, a viability ([16]; 0.12 µM) of 0.652 and a viability ([16]; 0.6 µM) of 0.672. It also gave a viability ([16]; 3 µM) of 0.53, a viability ([16]; 15 µM) of 0.549 and a viability ([17]; 0.024 µM) of 0.621. The viability ([17]; 0.12 µM) was 0.574, the viability ([17]; 0.6 µM) was 0.479 and the viability ([17]; 3 µM) was 0.637. The viability ([17]; 15 µM) was 0.681, the viability ([18]; 0.024 µM) was 0.84 and the viability ([18]; 0.12 µM) was 0.845. It also gave a viability ([18]; 0.6 µM) of 0.772, a viability ([18]; 3 µM) of 0.693 and a viability ([18]; 15 µM) of 0.55. For the same compound, the viability ([19]; 0.024 µM) was 0.852, the viability ([19]; 0.12 µM) was 0.85 and the viability ([19]; 0.6 µM) was 0.864. For the same compound, the viability ([19]; 3 µM) was 0.907, the viability ([19]; 15 µM) was 0.787 and the viability ([20]; 0.024 µM) was 0.867. It also gave a viability ([20]; 0.12 µM) of 0.931, a viability ([20]; 0.6 µM) of 0.888 and a viability ([20]; 3 µM) of 0.83. For the same compound, the viability ([20]; 15 µM) was 0.851.

For `N#CC[C@H](C1CCCC1)n1cc(-c2ncnc3[nH]ccc23)cn1` [Ruxolitinib], the viability ([1]; 0.024 µM) was 0.974, the viability ([1]; 0.12 µM) was 0.912 and the viability ([1]; 0.6 µM) was 0.994. It also gave a viability ([1]; 3 µM) of 0.986, a viability ([1]; 15 µM) of 0.94 and a viability ([2]; 0.024 µM) of 0.954. The viability ([2]; 0.12 µM) was 0.962, the viability ([2]; 0.6 µM) was 1.04 and the viability ([2]; 3 µM) was 1.02. The viability ([2]; 15 µM) was 1.06, the viability ([3]; 0.024 µM) was 1.02 and the viability ([3]; 0.12 µM) was 0.929. The viability ([3]; 0.6 µM) was 0.942, the viability ([3]; 3 µM) was 0.962 and the viability ([3]; 15 µM) was 0.871. It also gave a viability ([4]; 0.024 µM) of 0.982, a viability ([4]; 0.12 µM) of 0.788 and a viability ([4]; 0.6 µM) of 0.851. The viability ([4]; 3 µM) was 0.707, the viability ([4]; 15 µM) was 0.646 and the viability ([5]; 0.024 µM) was 1.05. The viability ([5]; 0.12 µM) was 1.03, the viability ([5]; 0.6 µM) was 1.09 and the viability ([5]; 3 µM) was 1. The viability ([5]; 15 µM) was 0.907, the viability ([6]; 0.024 µM) was 0.992 and the viability ([6]; 0.12 µM) was 0.932. It also gave a viability ([6]; 0.6 µM) of 0.924, a viability ([6]; 3 µM) of 0.919 and a viability ([6]; 15 µM) of 0.896. It also gave a viability ([7]; 0.024 µM) of 0.979, a viability ([7]; 0.12 µM) of 0.845 and a viability ([7]; 0.6 µM) of 0.808. The viability ([7]; 3 µM) was 0.774, the viability ([7]; 15 µM) was 0.724 and the viability ([8]; 0.024 µM) was 0.968. It also gave a viability ([8]; 0.12 µM) of 0.882, a viability ([8]; 0.6 µM) of 1.05 and a viability ([8]; 3 µM) of 0.908. It also gave a viability ([8]; 15 µM) of 0.893, a viability ([9]; 0.024 µM) of 1.09 and a viability ([9]; 0.12 µM) of 0.873. For the same compound, the viability ([9]; 0.6 µM) was 1.03, the viability ([9]; 3 µM) was 0.849 and the viability ([9]; 15 µM) was 0.716. For the same compound, the viability ([10]; 0.024 µM) was 0.915, the viability ([10]; 0.12 µM) was 1.09 and the viability ([10]; 0.6 µM) was 0.889. The viability ([10]; 3 µM) was 1.12, the viability ([10]; 15 µM) was 1.28 and the viability ([11]; 0.024 µM) was 1.03. For the same compound, the viability ([11]; 0.12 µM) was 0.928, the viability ([11]; 0.6 µM) was 1.02 and the viability ([11]; 3 µM) was 1.03. The viability ([11]; 15 µM) was 0.831, the viability ([12]; 0.024 µM) was 1.01 and the viability ([12]; 0.12 µM) was 0.988. It also gave a viability ([12]; 0.6 µM) of 0.956, a viability ([12]; 3 µM) of 0.944 and a viability ([12]; 15 µM) of 0.744. For the same compound, the viability ([13]; 0.024 µM) was 1.01, the viability ([13]; 0.12 µM) was 0.904 and the viability ([13]; 0.6 µM) was 1.03. It also gave a viability ([13]; 3 µM) of 1.04, a viability ([13]; 15 µM) of 0.913 and a viability ([14]; 0.024 µM) of 1.04. It also gave a viability ([14]; 0.12 µM) of 0.925, a viability ([14]; 0.6 µM) of 0.873 and a viability ([14]; 3 µM) of 0.913. The viability ([14]; 15 µM) was 0.883, the viability ([15]; 0.024 µM) was 1.09 and the viability ([15]; 0.12 µM) was 1.01. The viability ([15]; 0.6 µM) was 0.98, the viability ([15]; 3 µM) was 1.02 and the viability ([15]; 15 µM) was 0.928. It also gave a viability ([16]; 0.024 µM) of 0.658, a viability ([16]; 0.12 µM) of 0.804 and a viability ([16]; 0.6 µM) of 0.603. For the same compound, the viability ([16]; 3 µM) was 0.686, the viability ([16]; 15 µM) was 0.704 and the viability ([17]; 0.024 µM) was 1.03. For the same compound, the viability ([17]; 0.12 µM) was 0.945, the viability ([17]; 0.6 µM) was 0.963 and the viability ([17]; 3 µM) was 0.988. For the same compound, the viability ([17]; 15 µM) was 0.852, the viability ([18]; 0.024 µM) was 0.919 and the viability ([18]; 0.12 µM) was 0.801. The viability ([18]; 0.6 µM) was 0.844, the viability ([18]; 3 µM) was 0.779 and the viability ([18]; 15 µM) was 0.723. For the same compound, the viability ([19]; 0.024 µM) was 1.16, the viability ([19]; 0.12 µM) was 0.98 and the viability ([19]; 0.6 µM) was 1.08. It also gave a viability ([19]; 3 µM) of 0.965, a viability ([19]; 15 µM) of 0.894 and a viability ([20]; 0.024 µM) of 1.01. It also gave a viability ([20]; 0.12 µM) of 0.961, a viability ([20]; 0.6 µM) of 1 and a viability ([20]; 3 µM) of 1.03. For the same compound, the viability ([20]; 15 µM) was 1.05.
